Laboratory results: patent US8815909B2, “Diaminocyclohexane compounds and uses thereof” (Bristol-Myers Squibb Company, priority 2011, dated 2014)

target: T1, human Y4 receptor (Homo sapiens, UniProt P50391); assay: NPY4 cAMP HTRF Agonist Assay (inhibitory cAMP assay, Gi activation by Y4 agonism); assay type: cell-based; conditions: human Y4 stable CHO clonal cells, forskolin + IBMX; read-out: NPY4 cAMP HTRF Agonist Assay EC50
T1 construct: expressed in transfected cells
In short: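 Y4 agonism read as lowered forskolin-stimulated cAMP (HTRF, 1 h detection at room temperature). Stable human Y4 CHO clone, 5000 cells/well, incubated 30 min at room temperature with compounds plus forskolin and IBMX in PBS.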

T1 sequence (P50391 whole entry): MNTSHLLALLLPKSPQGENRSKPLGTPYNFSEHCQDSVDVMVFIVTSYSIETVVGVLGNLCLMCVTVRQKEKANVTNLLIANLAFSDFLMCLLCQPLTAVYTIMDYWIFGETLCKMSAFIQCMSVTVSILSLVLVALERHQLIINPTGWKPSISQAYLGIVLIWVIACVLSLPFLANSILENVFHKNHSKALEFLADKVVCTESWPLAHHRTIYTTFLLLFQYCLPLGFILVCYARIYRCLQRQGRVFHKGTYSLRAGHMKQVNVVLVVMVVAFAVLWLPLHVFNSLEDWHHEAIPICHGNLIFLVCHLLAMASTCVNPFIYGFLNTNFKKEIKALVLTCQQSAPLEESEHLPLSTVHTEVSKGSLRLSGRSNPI

EC50	SMILES
384 nM	FC(F)(F)c1ccn(-c2ccc(N3CCC[C@H](N[C@@H]4CCCC[C@H]4Nc4nccc(-c5ccccc5)n4)C3)cc2)n1 [Example 69, (1R,2R)—N1-(4-Phenylpyrimidin-2-yl)-N2-((S)-1-(4-(3-(trifluoromethyl)-1H-pyrazol-1-yl)phenyl)piperidin-3-yl)cyclohexane-1,2-diamine bis-trifluoroacetate]
799 nM	FC(F)(F)Oc1ccc(-c2cnc(N[C@@H]3CCCC[C@H]3N[C@H]3CCCN(c4ccc(-n5ccc(C(F)(F)F)n5)cc4)C3)o2)cc1 [Example 70, (1R,2R)—N1-(5-(4-(Trifluoromethoxy)phenyl)oxazol-2-yl)-N2-((S)-1-(4-(3-(trifluoromethyl)-1H-pyrazol-1-yl)phenyl)piperidin-3-yl)cyclohexane-1,2-diamine bis-trifluoroacetate]
15 nM	FC(F)(F)c1ccc(N2CCC[C@H](N[C@@H]3CCCC[C@H]3Nc3ncc(-c4ccccc4)s3)C2)cc1 [Example 72, (1R,2R)—N1-(5-Phenylthiazol-2-yl)-N2-((S)-1-(4-(trifluoromethyl)phenyl)piperidin-3-yl)cyclohexane-1,2-diamine]
83 nM	Fc1cc(N2CCC[C@H](N[C@@H]3CCCC[C@H]3Nc3ncc(-c4ccc(OC(F)(F)F)cc4)o3)C2)ccc1C(F)(F)F [Example 73, (1R,2R)—N1-((S)-1-(3-Fluoro-4-(trifluoromethyl)phenyl)piperidin-3-yl)-N2-(5-(4-(trifluoromethoxy)phenyl)oxazol-2-yl)cyclohexane-1,2-diamine bis-trifluoroacetate]
252 nM	FC(F)(F)c1ccc(N2CCC[C@H](N[C@@H]3CCCC[C@H]3Nc3cc(-c4ccccc4)ccn3)C2)cc1 [Example 75, (1R,2R)—N1-(4-Phenylpyridin-2-yl)-N2-((S)-1-(4-(trifluoromethyl)phenyl)piperidin-3-yl)cyclohexane-1,2-diamine]
34 nM	O=[N+]([O-])c1cnc(N2CCC[C@H](N[C@@H]3CCCC[C@H]3Nc3ncc(-c4ccccc4)o3)C2)nc1 [Example 77, (1R,2R)—N1-((S)-1-(5-Nitropyrimidin-2-yl)piperidin-3-yl)-N2-(5-phenyloxazol-2-yl)cyclohexane-1,2-diamine bis-trifluoroacetate]
75 nM	O=[N+]([O-])c1cnc(N2CCC[C@H](N[C@@H]3CCCC[C@H]3Nc3ncc(-c4ccc(OC(F)(F)F)cc4)o3)C2)nc1 [Example 78, (1R,2R)—N1-((S)-1-(5-Nitropyrimidin-2-yl)piperidin-3-yl)-N2-(5-(4-(trifluoromethoxy)phenyl)oxazol-2-yl)cyclohexane-1,2-diamine bis-trifluoroacetate]
242 nM	FC(F)(F)Oc1ccc(-c2cnc(N[C@@H]3CCCC[C@H]3N[C@H]3CCCN(c4ncc(C(F)(F)F)cn4)C3)o2)cc1 [Example 80, (1R,2R)—N1-(5-(4-(Trifluoromethoxy)phenyl)oxazol-2-yl)-N2-((S)-1-(5-(trifluoromethyl)pyrimidin-2-yl)piperidin-3-yl)cyclohexane-1,2-diamine bis-trifluoroacetate]
41 nM	N#Cc1cnc(N2CCC[C@H](N[C@@H]3CCCC[C@H]3Nc3ncc(-c4ccc(OC(F)(F)F)cc4)o3)C2)nc1 [Example 81, 2-((S)-3-((1R,2R)-2-(5-(4-(Trifluoromethoxy)phenyl)oxazol-2-ylamino)cyclohexylamino)piperidin-1-yl)pyrimidine-5-carbonitrile bis-trifluoroacetate]
9 nM	Cc1nnc(-c2ccc(N3CCC[C@H](N[C@@H]4CCCC[C@H]4Nc4ncc(-c5ccccc5)o4)C3)cc2)o1 [Example 83, (1R,2R)—N1-((S)-1-(4-(5-Methyl-1,3,4-oxadiazol-2-yl)phenyl)piperidin-3-yl)-N2-(5-phenyloxazol-2-yl)cyclohexane-1,2-diamine bis-trifluoroacetate]
145 nM	Cc1nnc(-c2ccc(N3CCC[C@H](N[C@@H]4CCCC[C@H]4Nc4ncc(-c5ccc(OC(F)(F)F)cc5)o4)C3)cc2)o1 [Example 85, (1R,2R)—N1-((S)-1-(4-(5-Methyl-1,3,4-oxadiazol-2-yl)phenyl)piperidin-3-yl)-N2-(5-(4-(trifluoromethoxy)phenyl)oxazol-2-yl)cyclohexane-1,2-diamine]
185 nM	FC(F)(F)Oc1ccc(-c2cnc(N[C@@H]3CCCC[C@H]3N[C@H]3CCCN(c4ccc(OC(F)(F)F)cc4)C3)o2)cc1 [Example 87, (1R,2R)—N1-(5-(4-(Trifluoromethoxy)phenyl)oxazol-2-yl)-N2-((S)-1-(4-(trifluoromethoxy)phenyl)piperidin-3-yl)cyclohexane-1,2-diamine]
58 nM	FC(F)(F)Oc1ccc(-c2cnc(N[C@@H]3CCCC[C@H]3N[C@H]3CCCN(c4ccc(-n5cncn5)cc4)C3)o2)cc1 [Example 89, (1R,2R)—N1-((S)-1-(4-(1H-1,2,4-Triazol-1-yl)phenyl)piperidin-3-yl)-N2-(5-(4-(trifluoromethoxy)phenyl)oxazol-2-yl)cyclohexane-1,2-diamine bis-trifluoroacetate]
288 nM	c1ccc(-c2ccnc(N[C@@H]3CCCC[C@H]3N[C@H]3CCCN(c4ccc(-n5cncn5)cc4)C3)n2)cc1 [Example 91, (1R,2R)—N1-((S)-1-(4-(1H-1,2,4-Triazol-1-yl)phenyl)piperidin-3-yl)-N2-(4-phenylpyrimidin-2-yl)cyclohexane-1,2-diamine bis-trifluoroacetate]
210 nM	FC(F)(F)Oc1ccc(-c2cnc(N[C@@H]3CCCC[C@H]3N[C@H]3CCCN(c4ccc(C(F)(F)F)cn4)C3)o2)cc1 [Example 94, (1R,2R)—N1-(5-(4-(Trifluoromethoxy)phenyl)oxazol-2-yl)-N2-((S)-1-(5-(trifluoromethyl)pyridin-2-yl)piperidin-3-yl)cyclohexane-1,2-diamine]
10 nM	N#Cc1ccc(N2C[C@@H]3CC(N[C@@H]4CCCC[C@H]4Nc4ncc(-c5ccc(OC(F)(F)F)cc5)o4)[C@H]2C3)cc1 (stereo partly drawn) [Example 95, 4-((1R,4R)-6-((1R,2R)-2-(5-(4-(Trifluoromethoxy)phenyl)oxazol-2-ylamino)cyclohexylamino)-2-azabicyclo[2.2.1]heptan-2-yl)benzonitrile]

Continued, compound first:

SMILES	EC50
FC(F)(F)Oc1ccc(-c2cnc(N[C@@H]3CCCC[C@H]3N[C@H]3CCCN(c4ccc(C(F)(F)F)cc4)C3)o2)cc1 [Example 71, (1R,2R)—N1-(5-(4-(Trifluoromethoxy)phenyl)oxazol-2-yl)-N2-((S)-1-(4-(trifluoromethyl)phenyl)piperidin-3-yl)cyclohexane-1,2-diamine]	45 nM
Fc1cc(N2CCC[C@H](N[C@@H]3CCCC[C@H]3Nc3nccc(-c4ccccc4)n3)C2)ccc1C(F)(F)F [Example 74, (1R,2R)—N1-((S)-1-(3-Fluoro-4-(trifluoromethyl)phenyl)piperidin-3-yl)-N2-(4-phenylpyrimidin-2-yl)cyclohexane-1,2-diamine bis-trifluoroacetate]	420 nM
Fc1cccc(-c2cnc(N[C@@H]3CCCC[C@H]3N[C@H]3CCCN(c4ccc(C(F)(F)F)cc4)C3)o2)c1 [Example 76, (1R,2R)—N1-(5-(3-Fluorophenyl)oxazol-2-yl)-N2-((S)-1-(4-(trifluoromethyl)phenyl)piperidin-3-yl)cyclohexane-1,2-diamine]	21 nM
FC(F)(F)c1cnc(N2CCC[C@H](N[C@@H]3CCCC[C@H]3Nc3ncc(-c4ccccc4)o3)C2)nc1 [Example 79, (1R,2R)—N1-(5-Phenyloxazol-2-yl)-N2-((S)-1-(5-(trifluoromethyl)pyrimidin-2-yl)piperidin-3-yl)cyclohexane-1,2-diamine bis-trifluoroacetate]	83 nM
N#Cc1cnc(N2CCC[C@H](N[C@@H]3CCCC[C@H]3Nc3ncc(-c4ccccc4)o3)C2)nc1 [Example 82, 2-((S)-3-((1R,2R)-2-(5-Phenyloxazol-2-ylamino)cyclohexylamino)piperidin-1-yl)pyrimidine-5-carbonitrile]	107 nM
Cc1nnc(-c2ccc(N3CCC[C@H](N[C@@H]4CCCC[C@H]4Nc4nccc(-c5ccccc5)n4)C3)cc2)o1 [Example 84, (1R,2R)—N1-((S)-1-(4-(5-Methyl-1,3,4-oxadiazol-2-yl)phenyl)piperidin-3-yl)-N2-(4-phenylpyrimidin-2-yl)cyclohexane-1,2-diamine bis-trifluoroacetate]	9 nM
FC(F)(F)Oc1ccc(N2CCC[C@H](N[C@@H]3CCCC[C@H]3Nc3ncc(-c4ccccc4)o3)C2)cc1 [Example 86, (1R,2R)—N1-(5-Phenyloxazol-2-yl)-N2-((S)-1-(4-(trifluoromethoxy)phenyl)piperidin-3-yl)cyclohexane-1,2-diamine]	91 nM
FC(F)(F)Oc1ccc(N2CCC[C@H](N[C@@H]3CCCC[C@H]3Nc3nccc(-c4ccccc4)n3)C2)cc1 [Example 88, (1R,2R)—N1-(4-Phenylpyrimidin-2-yl)-N2-((S)-1-(4-(trifluoromethoxy)phenyl)piperidin-3-yl)cyclohexane-1,2-diamine]	704 nM
c1ccc(-c2cnc(N[C@@H]3CCCC[C@H]3N[C@H]3CCCN(c4ccc(-n5cncn5)cc4)C3)o2)cc1 [Example 90, (1R,2R)—N1-((S)-1-(4-(1H-1,2,4-Triazol-1-yl)phenyl)piperidin-3-yl)-N2-(5-phenyloxazol-2-yl)cyclohexane-1,2-diamine bis-trifluoroacetate]	132 nM
Ic1ccc(N2CCC[C@H](N[C@@H]3CCCC[C@H]3Nc3nccc(-c4ccccc4)n3)C2)cc1 [Example 92, (1R,2R)—N1-((S)-1-(4-Iodophenyl)piperidin-3-yl)-N2-(4-phenylpyrimidin-2-yl)cyclohexane-1,2-diamine bis-trifluoroacetate]	469 nM
FC(F)(F)Oc1ccc(-c2cnc(N[C@@H]3CCCC[C@H]3N[C@H]3CCCN(c4ccc(I)cc4)C3)o2)cc1 [Example 93, (1R,2R)—N1-((S)-1-(4-Iodophenyl)piperidin-3-yl)-N2-(5-(4-(trifluoromethoxy)phenyl)oxazol-2-yl)cyclohexane-1,2-diamine bis-trifluoroacetate]	33 nM
